Data on three compounds can be found in EP4741383A1, “COMPOUND AND USE THEREOF AS ANTI-CANCER DRUG” (Tyligand Bioscience (Shanghai) Limited, priority 2023, dated 2025).

For this assay, the system named is A20. The experiment in a line: CellTiter-Glo cell proliferation inhibition, A20. Type of assay: cell-based. The note with it: A20 (mouse B-cell lymphoma cell line), 72 hours; read-out: Example IC50 (µM) A20. From the text:
This experiment used the CellTiter-Glo® Luminescent Cell Viability Assay kit from Promega to evaluate the inhibitory activity of the disclosed compounds on the proliferation of the following cell lines: 4T1 (mouse breast cancer cell line), A20 (mouse B-cell lymphoma cell line), A2780 (human ovarian cancer cell line), AsPC-1 (pancreatic cancer cell line), B16F10 (mouse melanoma cell line), BT549 (human breast cancer cell line), CT26 (mouse colon cancer cell line), EMT6 (mouse breast cancer cell line), HCT116 (colorectal cancer cell line), Jurket (acute leukemia cell line), KP-4 (pancreatic cancer cell line), LL/2 (mouse lung cancer cell line), MCF7 (breast cancer cell line), […] NCI-H358 (lung cancer cell line), NCI-H727 (gastric cancer cell line), NCI-1944 (lung cancer cell line), Pan 04.03 (pancreatic cancer cell line), SK-BR-3 (breast cancer cell line), THP-1 (leukemia cell line), TOV21G (ovarian cancer cell line), U87MG (glioblastoma cell line), and UM-UC-a (bladder cancer cell line).
All cell lines were purchased from Nanjing Kebai Biotechnology Co., Ltd. The following materials were also used in the experiment: RPMI-1640 media (HyClone, catalog number #SH30022.01), McCoy's 5A media (Thermo Fisher, catalog number #16600-082), MCDB 105 media (Sigma, catalog number #117-500), Medium 199 (Thermo Fisher, catalog number #11150-059), MEM media (Thermo Fisher, catalog number #11095-080), DMEM media (HyClone, catalog number #SH30027.01), fetal bovine serum (FBS) (ExCell, catalog number # M4530), Sodium Pyruvate (100Mm) (Thermo Fisher, catalog number #11360-070), and MEM NEAA (100X) (Thermo Fisher). […]
Cells were cultured according to the instructions provided by the cell supplier (Nanjing Kebai Biotechnology Co., Ltd.). […] Suspension or adherent cells were collected, and cell viability was determined using the trypan blue exclusion method, ensuring that cell viability was above 90%. […]

By IC50 is commonly meant the concentration that gives 50% inhibition.

For the compound `CC1(n2c(-c3ccc(NC(=O)C(=O)Nc4ccc(N5CCC6(CCOC6)CC5)cc4)cc3)cc3cc(F)c(-c4nnn[nH]4)cc32)CCC1` [Example 68], the half-inhibitory concentration (IC50) amounted to 0.075 µM.

For the compound `O=C(Nc1ccc(-c2csc(CO)c2)cc1)C(=O)Nc1ccc(-c2cc3cc(F)c(-c4nnn[nH]4)cc3n2C2CCC2)cc1` [Example 1], the half-inhibitory concentration (IC50) turned out to be 0.077 µM.

For the compound `O=C(Nc1ccc(-c2cc3cc(F)c(-c4nnn[nH]4)cc3n2C2CCC2)cc1)C(=O)Nc1ccc(N2CCC3(CCC(O)C3)CC2)cc1` (stereo not drawn) [Example 100], the IC50 is 0.128 µM.
